Test results: patent publication US20220315554A1, “COMPOUNDS COMPRISING A […] LIGAND AND USE THEREOF” (priority 2019, published 2022)
Numbered stars: 1 amine (or outer) side, 2 acyl side, 3 side chain; on linkers, the order of the positions; unused ones are H or OH. Bridge positions count the residues as written; N and C are the ends. Square brackets hold non-standard residues; d marks the D form. Peptide text beside a SMILES is read from it. * marks the point of attachment. X24 = NCCNCC(CNCCN)C(=O)N[C@@H](CCC(=O)NC[C@H](O)[C@@H](O)[C@H](O)[C@H](O)CO)C(=O)NCCCOCCOCCOCCCN*; mXylylene = c1cc(C[*:1])cc(C[*:2])c1; PEG6 = NCCOCCOCCOCCOCCOCCOCCC(=O)O; αMeF = C[C@](N)(Cc1ccccc1)C(=O)O; Suc = O=C(CCC(=O)[*:2])[*:1]; X18 = NCCNCC(CNCCN)C(=O)*; Nle = CCCC[C@H](N)C(=O)O; Hexanoyl = CCCCCC(=O)*; GABA = NCCCC(=O)O

What was measured:
[1] = Plasma stability assay, mouse plasma; type: in vitro ADME; conditions: 4 h incubation, 37° C., read-out: % intact compound remaining after incubation, Mouse plasma
[2] = target: T1, FAP-expressing human WI-38 fibroblasts (Homo sapiens, UniProt Q12884); assay: Competitive FACS binding assay; conditions: pIC50 Category (FACS), competition with 3 nM Cy5-labeled compound, 4° C., 1 hour
T1 construct: FAP-expressing human WI-38 fibroblasts (ECACC) were cultured in EMEM; host or cells: WI-38 human fibroblasts
T1 sequence (Q12884 1-760): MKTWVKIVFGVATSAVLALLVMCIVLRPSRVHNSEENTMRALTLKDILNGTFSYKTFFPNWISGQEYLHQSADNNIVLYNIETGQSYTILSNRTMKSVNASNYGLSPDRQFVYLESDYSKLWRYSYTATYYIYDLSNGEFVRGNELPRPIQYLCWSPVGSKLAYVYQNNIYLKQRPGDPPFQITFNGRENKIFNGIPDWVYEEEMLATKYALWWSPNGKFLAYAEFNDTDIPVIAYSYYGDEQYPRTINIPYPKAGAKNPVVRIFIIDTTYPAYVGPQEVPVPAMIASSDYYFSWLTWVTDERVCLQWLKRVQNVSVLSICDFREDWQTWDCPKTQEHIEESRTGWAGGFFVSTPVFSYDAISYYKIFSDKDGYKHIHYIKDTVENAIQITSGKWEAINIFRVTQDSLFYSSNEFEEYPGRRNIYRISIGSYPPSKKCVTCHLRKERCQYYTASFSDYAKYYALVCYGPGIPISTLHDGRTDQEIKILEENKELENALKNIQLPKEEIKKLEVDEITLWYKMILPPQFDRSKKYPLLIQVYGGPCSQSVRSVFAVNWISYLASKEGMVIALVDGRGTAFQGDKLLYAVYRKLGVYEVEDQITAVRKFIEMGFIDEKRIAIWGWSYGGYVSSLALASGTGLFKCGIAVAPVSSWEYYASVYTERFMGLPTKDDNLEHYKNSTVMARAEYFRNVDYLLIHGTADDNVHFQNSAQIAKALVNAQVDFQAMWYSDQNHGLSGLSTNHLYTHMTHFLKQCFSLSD
Method: Cells were analyzed in an Attune NxT flow cytometer. […]

Human recombinant FAP [3] = target: T2, Human recombinant FAP (Homo sapiens, UniProt Q12884); assay: FRET-based FAP protease activity assay; type: biochemical; parameters: purchased R&D systems 3715-SE; conditions: pIC50 Category (Activity), FRET substrate, 37° C.
T2 sequence (Q12884 1-760): T1 sequence (Q12884 1-760)

Human recombinant FAP [4] = target: T2, Human recombinant FAP; assay: Surface plasmon resonance (Biacore) assay; type: binding

CSCC[C@H](NC(C)=O)C(=O)N[C@H]1CSCc2cccc(c2)CSC[C@@H](C(=O)N[C@@H](CC(=O)O)C(=O)N[C@H](Cc2c[nH]cn2)C(=O)N[C@@H](Cc2ccccc2)C(=O)N[C@@H](CCCNC(=N)N)C(=O)N[C@@H](CC(=O)O)C(N)=O)NC(=O)[C@H](Cc2ccccc2)NC(=O)[C@H](CCC(=O)O)NC(=O)[C@H]([C@@H](C)O)NC(=O)[C@@H]2CCCN2C(=O)[C@@H]2CCCN2C1=O [3BP-3210, Ac-Met-[Cys(3MeBn)-Pro-Pro-Thr-Glu-Phe-Cys]-Asp-his-Phe-Arg-Asp-NH2] (Ac-MCPPTEFCD[dH]FRD-NH2; linker 2-8 via mXylylene)
remaining at 4 h, 9.8 µM [1]: 100% | IC50 ([2]; WI-38 fibroblasts): < 0.01 µM | IC50 (Human recombinant FAP [3]; recombinant human FAP): < 0.01 µM

CSCC[C@H](NC(C)=O)C(=O)N[C@H]1CSCc2cccc(c2)CSC[C@@H](C(=O)N[C@@H](CC(=O)O)C(=O)N[C@@H](Cc2c[nH]cn2)C(=O)N(C)[C@@H](Cc2ccccc2)C(=O)N[C@@H](CCCNC(=N)N)C(=O)N[C@@H](CC(=O)O)C(N)=O)NC(=O)[C@H](Cc2ccccc2)NC(=O)[C@H](CCC(=O)O)NC(=O)[C@H]2NC(=O)[C@@H]3C(CCN3C(=O)[C@@H]3CCCN3C1=O)[C@H]2O [3BP-3188, Ac-Met-[Cys(3MeBn)-Pro-Pro-Thr-Glu-Phe-Cys]-Asp-His-Nmf-Arg-Asp-NH2]
remaining at 4 h, 9.8 µM [1]: 97% | IC50 ([2]; WI-38 fibroblasts): < 0.01 µM | IC50 (Human recombinant FAP [3]; recombinant human FAP): < 0.01 µM

CSCC[C@H](NC(C)=O)C(=O)N[C@H]1CSCc2cccc(c2)CSC[C@@H](C(=O)N[C@@H](CC(=O)O)C(=O)N[C@@H](Cc2c[nH]cn2)C(=O)N[C@@](C)(Cc2ccccc2)C(=O)N[C@@H](CCCNC(=N)N)C(=O)N[C@@H](CC(=O)O)C(N)=O)NC(=O)[C@H](Cc2ccccc2)NC(=O)[C@H](CCC(=O)O)NC(=O)[C@H]([C@@H](C)O)NC(=O)[C@@H]2CCCN2C(=O)[C@@H]2CCCN2C1=O [3BP-3203, Ac-Met-[Cys(3MeBn)-Pro-Pro-Thr-Glu-Phe-Cys]-Asp-His-Amf-Arg-Asp-NH2] (Ac-MCPPTEFCDH[αMeF]RD-NH2; linker 2-8 via mXylylene)
remaining at 4 h, 9.8 µM [1]: 100% | IC50 ([2]; WI-38 fibroblasts): < 0.01 µM | IC50 (Human recombinant FAP [3]; recombinant human FAP): < 0.01 µM

CSCC[C@H](NC(C)=O)C(=O)N[C@@H]1CSCc2cccc(c2)CSC[C@H](C(=O)N[C@@H](CC(=O)O)C(=O)N[C@@H](Cc2c[nH]cn2)C(=O)N[C@@H](Cc2ccccc2)C(=O)N[C@@H](CCCNC(=N)N)C(=O)N[C@@H](CC(=O)O)C(N)=O)NC(=O)[C@H](Cc2ccccc2)NC(=O)[C@H](CCC(=O)O)NC(=O)[C@H]([C@@H](C)O)NC(=O)[C@@H]2CCCN2C(=O)[C@@H]2CCCN2C1=O [3BP-3181, Ac-Metqcys(3MeBn)-Pro-Pro-Thr-Glu-Phe-cys]-Asp-His-Phe-Arg-Asp-NH2] (Ac-M[dC]PPTEF[dC]DHFRD-NH2; linker 2-8 via mXylylene)
remaining at 4 h, 9.8 µM [1]: 100%

CSCC[C@H](NC(C)=O)C(=O)N[C@H]1CSCc2cccc(c2)CSC[C@@H](C(=O)N[C@@H](CC(=O)O)C(=O)N[C@@H](Cc2c[nH]cn2)C(=O)N[C@@H](Cc2ccccc2)C(=O)N[C@H](CCCNC(=N)N)C(=O)N[C@@H](CC(=O)O)C(N)=O)NC(=O)[C@H](Cc2ccccc2)NC(=O)[C@H](CCC(=O)O)NC(=O)[C@H]([C@@H](C)O)NC(=O)[C@@H]2CCCN2C(=O)[C@@H]2CCCN2C1=O [3BP-3212, Ac-Met-[Cys(3MeBn)-Pro-Pro-Thr-Glu-Phe-Cys]-Asp-His-Phe-arg-Asp-NH2] (Ac-MCPPTEFCDHF[dR]D-NH2; linker 2-8 via mXylylene)
remaining at 4 h, 9.8 µM [1]: 80% | IC50 ([2]; WI-38 fibroblasts): < 0.01 µM | IC50 (Human recombinant FAP [3]; recombinant human FAP): < 0.01 µM

CSCC[C@H](NC(C)=O)C(=O)N[C@H]1CSCc2cccc(c2)CSC[C@@H](C(=O)N[C@@H](CC(=O)O)C(=O)N[C@@H](Cc2c[nH]cn2)C(=O)N[C@@H](Cc2ccccc2)C(=O)N[C@@H](CCCNC(=N)N)C(=O)N[C@@H](CC(=O)O)C(N)=O)NC(=O)[C@H](Cc2ccccc2)NC(=O)[C@H](CCC(=O)O)NC(=O)[C@H]([C@@H](C)O)NC(=O)[C@H]2CCCN2C(=O)[C@@H]2CCCN2C1=O [3BP-3177, Ac-Met-[Cys(3MeBn)-Pro-pro-Thr-Glu-Phe-Cys]-Asp-His-Phe-Arg-Asp-NH2] (Ac-MCP[dP]TEFCDHFRD-NH2; linker 2-8 via mXylylene)
remaining at 4 h, 9.8 µM [1]: 79% | IC50 ([2]; WI-38 fibroblasts): 0.01 to 0.0794 µM | IC50 (Human recombinant FAP [3]; recombinant human FAP): 0.01 to 0.0794 µM

CCCCCC(=O)N[C@H]1CSCc2cc(CSCCNC(=O)CN3CCN(CC(=O)O)CCN(CC(=O)O)CCN(CC(=O)O)CC3)cc(c2)CSC[C@@H](C(=O)N[C@H](CC(=O)O)Cc2ccccc2)NC(=O)[C@H](Cc2ccccc2)NC(=O)[C@H](CCC(N)=O)NC(=O)[C@H]([C@@H](C)O)NC(=O)[C@@H]2CCCN2C(=O)[C@@H]2CCCN2C1 [3BP-3660, Hex-[Cys(tMeBn(DOTA-AET))-Pro-Pro-Thr-Gln-Phe-Cys]-Bhf-OH]
IC50 [2]: < 0.01 µM | IC50 (Human recombinant FAP [3]): < 0.01 µM | Kd (Human recombinant FAP [4]): < 0.01 µM

CCCC[C@H](NC(=O)CCC(=O)NCCCOCCOCCOCCCNC(=O)[C@H](CCC(=O)NC[C@H](O)[C@@H](O)[C@H](O)[C@H](O)CO)NC(=O)C(CNCCN)CNCCN)C(=O)N[C@H]1CSCc2cccc(c2)CSC[C@@H](C(=O)O)NC(=O)[C@H](Cc2ccccc2)NC(=O)[C@H](CCC(=O)O)NC(=O)[C@H]([C@@H](C)O)NC(=O)[C@@H]2CCCN2C(=O)[C@@H]2CCCN2C1=O [3BP-4246, N4Ac-Glu(AGLU)-Ttds-Nle-[Cys-(3MeBn)-Pro-Pro-Thr-Gln-Phe-Cys]-OH] ({X24-Suc}-[Nle]CPPTEFC-OH; linker 2-8 via mXylylene)
IC50 [2]: 0.01 to 0.0794 µM | IC50 (Human recombinant FAP [3]): 0.01 to 0.0794 µM | Kd (Human recombinant FAP [4]): < 0.01 µM

CCCC[C@H](NC(=O)CCOCCOCCOCCOCCOCCOCCNC(=O)C(CNCCN)CNCCN)C(=O)N[C@H]1CSCc2cccc(c2)CSC[C@@H](C(=O)O)NC(=O)[C@H](Cc2ccccc2)NC(=O)[C@H](CCC(=O)O)NC(=O)[C@H]([C@@H](C)O)NC(=O)[C@@H]2CCCN2C(=O)[C@@H]2CCCN2C1=O [3BP-4221, N4Ac-PEG6-Nle-[Cys-(3MeBn)-Pro-Pro-Thr-Glu-Phe-Cys]-OH] ({X18-PEG6}-[Nle]CPPTEFC-OH; linker 2-8 via mXylylene)
IC50 [2]: 0.01 to 0.0794 µM | IC50 (Human recombinant FAP [3]): 0.01 to 0.0794 µM | Kd (Human recombinant FAP [4]): < 0.01 µM

CCCCCC(=O)N[C@H]1CSCc2cc(CSCCNC(=O)CC[C@@H]3C(=O)[O][Ga]([O]C(=O)CN(C)CC)[O]C(=O)CN(C)CCN3CC)cc(c2)CSC[C@@H](C(=O)O)NC(=O)[C@H](Cc2ccccc2)NC(=O)[C@H](CCC(N)=O)NC(=O)[C@H]([C@@H](C)O)NC(=O)[C@@H]2CCCN2C(=O)[C@@H]2CCCN2C1=O [3BP-4184, Gallium-Complex of Hex-[Cys(tMeBn(NODAGA-AET))-Pro-Pro-Thr-Gln-Phe-Cys]-OH]
IC50 [2]: < 0.01 µM | IC50 (Human recombinant FAP [3]): < 0.01 µM | Kd (Human recombinant FAP [4]): < 0.01 µM

CCCCCC(=O)N[C@H]1CSCc2cc(CSCCNC(=O)CN3CCN(CC(=O)O)CCN(CC(=O)O)CCN(CC(=O)O)CC3)cc(c2)CSC[C@@H](C(=O)NCCC(=O)O)NC(=O)[C@H](Cc2ccccc2)NC(=O)[C@H](CCC(N)=O)NC(=O)[C@H]([C@@H](C)O)NC(=O)[C@@H]2CCCN2C(=O)[C@@H]2CCCN2C1=O [3BP-3651, Hex-[Cys(tMeBn(DOTA-AET))-Pro-Pro-Thr-Gln-Phe-Cys]-Bal-OH]
IC50 ([2]; WI-38 fibroblasts): < 0.01 µM | IC50 (Human recombinant FAP [3]; recombinant human FAP): < 0.01 µM | Kd (Human recombinant FAP [4]): < 0.01 µM

CCCCCC(=O)N[C@H]1CSCc2cc(CSCCNC(=O)CN3CCN(CC(=O)O)CCN(CC(=O)O)CCN(CC(=O)O)CC3)cc(c2)CSC[C@@H](C(=O)O)NC(=O)[C@H](Cc2cccc3ccccc23)NC(=O)[C@H](CCC(N)=O)NC(=O)[C@H]([C@@H](C)O)NC(=O)[C@@H]2CCCN2C(=O)[C@@H]2CCCN2C1 [3BP-3650, Hex-[Cys(tMeBn(DOTA-AET))-Pro-Pro-Thr-Gln-1Ni-Cys]-OH]
IC50 ([2]; WI-38 fibroblasts): < 0.01 µM | IC50 (Human recombinant FAP [3]; recombinant human FAP): < 0.01 µM | Kd (Human recombinant FAP [4]): < 0.01 µM

CCCCCC(=O)N[C@H]1CSCc2cccc(c2)CSC[C@@H](C(=O)N[C@@H](CC(=O)O)C(=O)NCCCC(=O)N[C@@H](CCCNC(=N)N)C(N)=O)NC(=O)[C@H](Cc2ccccc2)NC(=O)[C@H](CCC(=O)O)NC(=O)[C@H]([C@@H](C)O)NC(=O)[C@@H]2CCCN2C(=O)[C@@H]2CCCN2C1=O [3BP-3300, Hex-[Cys(3MeBn)-Pro-Pro-Thr-Glu-Phe-Cys]-Asp-Gab-Arg-NH2] (Hexanoyl-CPPTEFCD[GABA]R-NH2; linker 1-7 via mXylylene)
IC50 ([2]; WI-38 fibroblasts): < 0.01 µM | IC50 (Human recombinant FAP [3]; recombinant human FAP): < 0.01 µM | Kd (Human recombinant FAP [4]): < 0.01 µM
